In patent US12312359B2 (Vitae Pharmaceuticals, LLC, priority 2016, dated 2025):

Legend:
[1] = tested on: human acute monocytic leukemia cell line MV-4-11; experiment: Assay 2: cell proliferation assay (ATP quantitation, CellTiter-Glo), MV-4-11; format: cell-based; settings: MV-4-11 cells
Summary of the method: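 MV-4-11 cells, 1.67×10^4 per well in medium with 10% FBS, were exposed to compound for 72 h at 37° C., 5% CO2; HL-60 cells served as toxicity control. Proliferation read as ATP content by CellTiter-Glo luminescence.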

[2] = biological target: T1, biotinylated wild-type menin and MLL-AF9 fusion protein (menin/MLL binding) (Homo sapiens, UniProt O00255); experiment: Assay 1: menin/MLL binding AlphaLISA assay, wild-type menin; settings: Table 30; column head does not say wild-type or mutated menin
T1 construct: made in house; host or cells: menin: E. coli; MLL-AF9-FLAG: HEK293 cells, used as cleared lysate
T1 sequence (O00255 1-610): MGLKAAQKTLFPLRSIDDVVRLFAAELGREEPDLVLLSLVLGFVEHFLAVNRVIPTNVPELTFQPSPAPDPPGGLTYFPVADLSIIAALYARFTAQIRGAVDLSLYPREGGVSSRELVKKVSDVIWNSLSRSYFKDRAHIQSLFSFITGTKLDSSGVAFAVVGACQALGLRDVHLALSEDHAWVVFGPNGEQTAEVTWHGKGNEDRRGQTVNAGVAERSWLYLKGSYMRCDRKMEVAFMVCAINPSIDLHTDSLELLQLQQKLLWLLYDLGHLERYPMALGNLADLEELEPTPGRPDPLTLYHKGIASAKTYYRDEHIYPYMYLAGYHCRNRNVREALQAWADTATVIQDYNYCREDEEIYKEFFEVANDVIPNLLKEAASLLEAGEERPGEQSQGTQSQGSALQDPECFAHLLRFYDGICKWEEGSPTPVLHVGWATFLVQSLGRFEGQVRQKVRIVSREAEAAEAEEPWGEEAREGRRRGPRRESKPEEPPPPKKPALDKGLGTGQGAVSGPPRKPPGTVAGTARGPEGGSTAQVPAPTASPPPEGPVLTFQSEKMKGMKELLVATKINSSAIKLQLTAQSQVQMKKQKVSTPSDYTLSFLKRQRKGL
Summary of the method: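 Compound was preincubated 30 min at room temperature with biotinylated menin (5 nM) and MLL-AF9-FLAG lysate from HEK293 cells, pH 7.4 buffer with 5% DMSO and DTT. Bead-based Alpha signal after 60 min with streptavidin donor and anti-FLAG acceptor beads; four-parameter logistic fit gave IC50.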

Row | SMILES | EC50 ([1]; Homo sapiens, MV4-11, 72 h) | IC50 [2] | EC50 ([1]; 72 h)
1 | CCN(C(=O)c1cc(F)ccc1Oc1cncnc1N1CCC2(CCN(Cc3ccc4c(c3)[nH]c(=O)n4C)C2)C1)C(C)C (stereo not shown) [Example 107, N-ethyl-5-fluoro-N-isopropyl-2-((4-(7-((1-methyl-2-oxo-2,3-dihydro-1H-benzo[d]imidazol-5-yl)methyl)-2,7-diazaspiro[4.4]nonan-2-yl)pyrimidin-5-yl)oxy)benzamide] | < 0.1 µM | < 0.1 µM | –
2 | C=C(C)c1ccccc1-c1cc(F)ccc1Oc1cncnc1N1CCC2(CCN(Cc3ccc4[nH]c(=O)[nH]c4c3)C2)C1 (stereo not shown) [Example 161, 5-((7-(5-((5-fluoro-2′-(prop-1-en-2-yl)-[1,1′-biphenyl]-2-yl)oxy)pyrimidin-4-yl)-2,7-diazaspiro[4.4]nonan-2-yl)methyl)-1,3-dihydro-2H-benzo[d]imidazol-2-one] | < 0.1 µM | < 0.1 µM | –
3 | CC(C)n1nccc1-c1cc(F)ccc1Oc1cncnc1N1CCC2(CCN(Cc3ccc4[nH]c(=O)[nH]c4c3)C2)C1 (single isomer, unassigned) [Example 197B, 5-((7-(5-(4-fluoro-2-(1-isopropyl-1H-pyrazol-5-yl)phenoxy)pyrimidin-4-yl)-2,7-diazaspiro[4.4]nonan-2-yl)methyl)-1,3-dihydro-2H-benzo[d]imidazol-2-one] | – | < 0.1 µM | < 0.1 µM
4 | CCN(C(=O)C(C)C)c1cc(F)ccc1Oc1cncnc1N1CC2(CCN(C[C@H]3CC[C@H](NC(=O)OC(C)(C)C)CC3)CC2)C1 [Example 84, tert-butyl ((1r,4r)-4-((2-(5-(2-(N-ethylisobutyramido)-4-fluorophenoxy)pyrimidin-4-yl)-2,7-diazaspiro[3.5]nonan-7-yl)methyl)cyclohexyl) carbamate] | < 0.1 µM | < 0.1 µM | –
5 | CC(C)N(C)C(=O)c1cc(F)ccc1Oc1cncnc1N1CC2(CCN(C[C@H]3CC[C@H](NC(=O)OC(C)(C)C)CC3)CC2)C1 [Example 94, tert-butyl ((1r,4r)-4-((2-(5-(4-fluoro-2-(isopropyl(methyl)carbamoyl)phenoxy)pyrimidin-4-yl)-2,7-diazaspiro[3.5]nonan-7-yl)methyl)cyclohexyl) carbamate] | 0.1 to 1 µM | < 0.1 µM | –
6 | N#Cc1ccc(-c2cc(F)ccc2Oc2cncnc2N2CCC3(CCC(N)(Cc4ccccc4)C3)C2)c(C2CC2)c1 (single isomer, unassigned) [Example 250B, 2′-((4-(7-amino-7-benzyl-2-azaspiro[4.4]nonan-2-yl)pyrimidin-5-yl)oxy)-2-cyclopropyl-5′-fluoro-[1,1′-biphenyl]-4-carbonitrile] | ≥ 1 µM | < 0.1 µM | –
7 | CC(C)c1ccccc1-c1cc(F)ccc1Nc1cncnc1N1CC2(CN(CC3(O)CCCCC3)C2)C1 [Example 242, 1-((6-(5-((5-fluoro-2′-isopropyl-[1,1′-biphenyl]-2-yl)amino)pyrimidin-4-yl)-2,6-diazaspiro [3.3]heptan-2-yl)methyl) cyclohexan-1-ol] | 0.1 to 1 µM | < 0.1 µM | –
8 | NS(=O)(=O)c1ccc2c(c1)CC(C(=O)N1CC3(C1)CN(c1ncncc1Oc1ccc(F)cc1Cl)C3)C2 (stereo not shown) [Example 40, 2-(6-(5-(2-chloro-4-fluorophenoxy)pyrimidin-4-yl)-2,6-diazaspiro[3.3]heptane-2-carbonyl)-2,3-dihydro-1H-indene-5-sulfonamide] | ≥ 1 µM | 0.1 to 1 µM | –
9 | COC(=O)N[C@H]1CC[C@H](CN2CCC3(CC2)CN(c2ncncc2Oc2ccc(F)cc2C(=O)N(C)C(C)C)C3)CC1 [Example 95, methyl ((1r,4r)-4-((2-(5-(4-fluoro-2-(isopropyl(methyl)carbamoyl)phenoxy)pyrimidin-4-yl)-2,7-diazaspiro[3.5]nonan-7-yl)methyl)cyclohexyl) carbamate] | 0.1 to 1 µM | < 0.1 µM | –
10 | COC(=O)Nc1cccc(CN2CCC3(CCN(c4ncncc4Oc4ccc(F)cc4-c4ccc(C#N)cc4C4CC4)C3)C2)c1 (stereo not shown) [Example 170, methyl (3-((7-(5-((4′-cyano-2′-cyclopropyl-5-fluoro-[1,1′-biphenyl]-2-yl)oxy)pyrimidin-4-yl)-2,7-diazaspiro[4.4]nonan-2-yl)methyl)phenyl) carbamate] | 0.1 to 1 µM | < 0.1 µM | –
11 | Cn1c(-c2cc(F)ccc2Oc2cncnc2N2CC3(CCN(CC4CCC(NS(C)(=O)=O)CC4)CC3)C2)c(C2CC2)ccc1=O (stereo not shown) [Example 80, N-(4-((2-(5-(2-(3-cyclopropyl-1-methyl-6-oxo-1,6-dihydropyridin-2-yl)-4-fluorophenoxy)pyrimidin-4-yl)-2,7-diazaspiro[3.5]nonan-7-yl)methyl)cyclohexyl) methanesulfon-amide] | < 0.1 µM | < 0.1 µM | –
12 | CC(C)c1ncncc1-c1cc(F)ccc1Oc1cncnc1N1CC2(CC(NC3CCC(C)(C#N)CC3)C2)C1 (single isomer, unassigned) [Example 148B, 4-((2-(5-(4-fluoro-2-(4-isopropylpyrimidin-5-yl)phenoxy)pyrimidin-4-yl)-2-azaspiro[3.3]heptan-6-yl)amino)-1-methylcyclohexane carbonitrile] | – | < 0.1 µM | 0.1 to 1 µM
13 | COC(=O)N(c1cc(F)ccc1Oc1cncnc1N1CCC2(CCN(Cc3ccc4[nH]c(=O)[nH]c4c3)C2)C1)C(C)C (stereo not shown) [Example 144, methyl (5-fluoro-2-((4-(7-((2-oxo-2,3-dihydro-1H-benzo[d]imidazol-5-yl)methyl)-2,7-diazaspiro[4.4]nonan-2-yl)pyrimidin-5-yl)oxy)phenyl)(iso-propyl)carbamate] | < 0.1 µM | < 0.1 µM | –
14 | Cn1c(-c2cc(F)ccc2Oc2cncnc2N2CCC3(CCN(Cc4ccc5[nH]c(=O)[nH]c5c4)C3)C2)c(C2CC2)ccc1=O (racemic) [Example 29, 5-((7-(5-(2-(3-cyclopropyl-1-methyl-6-oxo-1,6-dihydropyridin-2-yl)-4-fluorophenoxy)pyrimidin-4-yl)-2,7-diazaspiro[4.4]nonan-2-yl)methyl)-1,3-dihydro-2H-benzo[d]imidazol-2-one] | < 0.1 µM | < 0.1 µM | –
15 | CCN(C(=O)c1cc(F)ccc1Oc1cncnc1N1CCC2(CCN(Cc3ccc4c(c3)[nH]c(=O)n4CCO)C2)C1)C(C)C (stereo not shown) [Example 4, N-ethyl-5-fluoro-2-((4-(7-((1-(2-hydroxyethyl)-2-oxo-2,3-dihydro-1H-benzo[d]imidazol-5-yl)methyl)-2,7-diazaspiro[4.4]nonan-2-yl)pyrimidin-5-yl)oxy)-N-isopropylbenzamide] | < 0.1 µM | < 0.1 µM | –
16 | CC(C)c1ccccc1-c1cc(F)ccc1Oc1cncnc1N1CCC2(CCN(Cc3ccc4[nH]c(=O)[nH]c4c3)C2)C1 (single isomer, unassigned) [Example 41B, 5-((7-(5-((5-fluoro-2′-isopropyl-[1,1′-biphenyl]-2-yl)oxy)pyrimidin-4-yl)-2,7-diazaspiro[4.4]nonan-2-yl)methyl)-1H-benzo[d]imidazol-2(3H)-one] | – | < 0.1 µM | < 0.1 µM
17 | CC(C)n1nccc1-c1cc(F)ccc1Oc1cncnc1N1CCC2(CCN(C(=O)C(N)C3CCCCC3)C2)C1 (single isomer, unassigned) [Example 206A, 2-amino-2-cyclohexyl-1-(7-(5-(4-fluoro-2-(1-isopropyl-1H-pyrazol-5-yl)phenoxy)pyrimidin-4-yl)-2,7-diazaspiro[4.4]nonan-2-yl)ethanone] | 0.1 to 1 µM | < 0.1 µM | –
